The values below come from ChEMBL document CHEMBL5727714, “Amino compounds for treatment of medical disorders” (2020).

The experiment concerns the target Complement factor D (Homo sapiens, UniProt P00746). Put plainly: Inhibition Assay: Human Factor D (purified from human serum, Complement Technology, Inc.) at 80 nM final concentration is incubated with test compound at various concentrations for 5 minutes at room temperature in 50 mM Tris, 1M NaCl, pH 7.5. A synthetic substrate Z-L-Lys-SBzl and DTNB (Ellman's reagent) are added to final concentrations of 100 Î¼M each. Absorbance at 405 nm (A405) is recorded at 30 second intervals for 30 minutes using a microplate spectrophotometer. IC50 values are calculated by nonlinear regression of complement Factor D reaction rates as a function of test compound concentration.

Chain of Complement factor D (P00746 whole entry): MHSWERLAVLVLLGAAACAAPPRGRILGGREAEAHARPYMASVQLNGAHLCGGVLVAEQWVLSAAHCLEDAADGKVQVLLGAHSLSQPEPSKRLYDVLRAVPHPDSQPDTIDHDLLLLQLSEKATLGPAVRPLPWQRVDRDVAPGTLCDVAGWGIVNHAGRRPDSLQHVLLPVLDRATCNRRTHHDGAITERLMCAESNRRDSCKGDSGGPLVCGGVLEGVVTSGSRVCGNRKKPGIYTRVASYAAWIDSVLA

Take `CC(=O)c1cn(CC(=O)N2C[C@H](F)C[C@H]2C(=O)Nc2cccc(Cl)c2C(F)(F)F)c2ccc(Nc3cncnc3)cc12`: the IC50 is < 1000 nM.
